Measurements from patent US9486456B2, “Treatment of esophageal motility disorder using sepiapterin, tetrahydrobiopterin and derivatives thereof” (The Board of Regents of the University of Texas System, priority 2006, dated 2016).
Where two headings read alike, the source gives them in different places.

Assays:
gastric tissues = experiment: Nitrergic relaxation of gastric tissues after in vitro incubation (organ bath); design: species or system rat
gastric LM-MPs = experiment: NO release from gastric LM-MP incubated with DAHP; conditions: DAHP 10 mM, 48 hours, healthy female rat gastric LM-MP
Method: (§1) Gastric LM-MPs were incubated for 48 hrs in the presence or the absence of DAHP (10 mM) and nNOS dimerization (FIG. 9A-9B) in tissues and NO release (FIG. 9C) in the media were assessed. (n=3).
Gastric LM-MPs were incubated for 24 hours in DMEM supplemented with 2% neurobasal medium (NB27) and 1% antibiotics. The concentration of NO (micromoles/mg tissue) was measured using readily available NO kit (Cayman corporation). […] The present invention contemplates examining whether supplementation of BH4 and female sex hormones restores reduced NO release in diabetic female gastric LM-MP tissues.
(§2) The present invention examined whether treatment with DAHP in vitro uncoupled gastric nNOS dimerization and NO release in healthy female rats. Gastric longitudinal muscle-myenteric plexus (LM-MP) were incubated for 48 hours in the presence or absence of DHAP (10 mM). It was observed that inhibition of BH4 biosynthesis with DAHP decreased both nNOS dimerization (FIGS. 9A-9B) and NO release (FIG. 9C). These additional data further support the hypothesis that impaired biosynthesis of gastric BH4 accounts for the decrease in nNOS activity and nitrergic relaxation in female diabetic gastroparesis.

nNOS = nNOS dimerization in gastric LM-MP incubated in vitro; conditions: DAHP 10 mM, 48 hours, healthy female rat gastric LM-MP
Method: as §1, §2

female rats = experiment: Solid gastric emptying studies; format: in vivo, rat; conditions: for Effect on gastric emptying for solids: OVX female rats, 21 day release pellets E2 2 mg or P4 20 mg per kg
Method: In addition, using the similar gastric emptying protocol, accelerated gastric emptying was observed instead of delayed gastric emptying in spontaneous diabetic female but not in male diabetic animals (101).
According to the protocol, animals were fasted over night (provide water). On the next day, known amount of food was fed to the animals for 3 h. At the end of 3 h collected the remaining food from the cage and calculated the amount of food intake. Then fast the animals for 4 hrs without food and water. At the end of fast, animals were euthanized, collected the gastric tissue and measured the weight of the whole stomach. Then removed the food contents by opening the stomach and measured the empty stomach weight. The rate of gastric emptying was calculated according to the following equation: gastric emptying (% in 4 h)=(1−gastric content food intake^−1)×100.

nNOSalpha protein = nNOSalpha protein expression, Western blot; format: in vivo, rat; conditions: for nNOSalpha protein level: diabetic female rat gastric antrum, sepiapterin 10 days or BH4 2 weeks, 20 mg kg^−1 per day
Method: nNOSa protein was quantified in gastric antrum homogenates from all groups using standard western blot analysis, as described in our previous study (94). Proteins were measured by Bio-Rad protein assay (Bio-Rad, Hercules, Calif.) and 30 μg protein was separated by 6% SDS polyacrylamide gel electrophoresis (SDS-PAGE). The membrane was immunoblotted with polyclonal nNOSa primary antibody (Zymed Laboratories Inc., CA) and anti-rabbit IgG conjugated with horseradish peroxidase (Sigma Chemical, St. Louis, Mo.) as secondary antibody. Binding of antibodies to the blots was detected with enhanced chemiluminescence system (ECL, Amersham Pharmacia Biotech, Piscataway, N.J.) following manufacturer's instructions. Stripped blots were re-probed with g-tubulin specific polyclonal antibodies (Sigma Chemical, St. Louis, Mo.) to enable normalization of signals between samples. Band intensities were analyzed using Bio-Rad Gel Doc (Bio-Rad, Hercules, Calif.).

rats = experiment: Intragastric (antrum) pressure by ambulatory telemetry; format: in vivo, rat; conditions: L-NAME 200 mg/day/kg s.c. osmotic mini-pump, 4 days
Method: The intragastric antrum pressure (IGAP) was measured in normal and diabetic male (FIG. 3A) and female (FIG. 3B) rats. The transducer pressure catheter was introduced into the gastric antrum cavity 5 mm proximal to the pylorus to record IGAP (mmHg×sec). After recording the baseline IGAP, N^G-nitro-L-arginine methyl ester (L-NAME, 200 mg/day/kg body weight (BW)/rat) was administered subcutaneously in the same rats by osmotic mini-pumps (Alza, Palo Alto, Calif., model 2ML1 with a pumping rate of 10 μl/hour) for 4 days. All subsequent studies were performed 1 week after surgery in overnight fasted rats that were awake and in a free-moving state. Pressure recordings were performed at least 2-3 hours between 9-12 am. Bilateral ovariectomy was performed as reported previously. Dietary BH4 (25 mg/day/kg body weight (BE)/rat). *p<0.05. ANOVA.
Intragastric pressure (IGP) was measured using ambulatory telemetric device. […]
Dietary BH4 (25 mg/kg b.w/rat/day) was supplemented for female rats for 12 weeks beginning from day 2 after diabetic induction. Intragastric pressure (IGP) was measured in female control, diabetic and diabetic+BH4 treated rats. […] In another experiment, diabetic females were treated for 3 weeks with BH4 and nNOS alpha protein expression was measured in treated and untreated gastric tissues.

gastric muscle strips = experiment: EFS-induced nitrergic (NANC) relaxation of gastric muscle strips after in vivo treatment (organ bath); design: species or system rat
Method: Electric field stimulation (EFS)-induced NANC relaxation was studied in circular gastric antrum muscle strips. Muscle strips were tied with silk thread at both ends and were mounted in 10-ml water-jacketed organ baths containing Krebs buffer (11 mM glucose) at 37° C. and continuously bubbled with 95% O2-5% CO2 (Radnoti Glass Technology, Monrovia, Calif.). Tension for each muscle strip was monitored with an isometric force transducer and analyzed by a digital recording system (Biopac Systems, Santa Barbara, Calif.). A passive tension equal to 2 g was applied on each strip in the 1 h equilibration period through an incremental increase (0.5 g, four times, at 15 min interval). Gastric antrum muscle strips were exposed to atropine, phentolamine and propranolol (10 μmol each) in bath solution for 1 h to block cholinergic and adrenergic responses. 5-hydroxytryptamine (5-HT; 100 μM) pre-contracted strips were exposed to EFS (90 V, 2 Hz, 1-ms pulse for duration of 1 min) to elicit NANC relaxation.
To investigate the in vivo effect of methotrexate (MTX) on EFS induced nitrergic relaxation; a group of animals were supplemented with MTX (inhibitor of dihydro folate reductase, DHFR) 3.75 mg kg^−1 body wt. per twice a day for 4 days. Gastric strips from control animals and MTX treated animals were incubated in organ bath and nitrergic relaxation was measured by EFS. At the end of each experiment, the muscle strip was blotted dry with filter paper and weighed. Comparisons between groups were performed by measuring the area under the curve (AUC mg^−1 tissue) of the EFS-induced relaxation (AUCR) for 1 min and the baseline for 1 min (AUCB) according to the formula (AUCR−AUCB) weight of tissue (mg)^−1=AUC mg of tissue^−1.

[1] = test system: gastric antrum muscle strip; experiment: In vitro NO release from gastric antrum strips (total nitrite); design: species or system rat; conditions: 48 h incubation
Method: Animals from control groups were killed by CO2 asphyxiation, the abdominal cavity opened, and the stomach dissected and transferred in chilled oxygenated Krebs bicarbonate solution of the following composition (in mmol): 118.0 NaCl, 4.7 KCl, 25.0 NaHCO3, 1.5 CaCl2, 1.2 MgSO4, 1.2 KH2PO4, and 11.5 glucose (pH 7.4). Antrum tissue was harvested and cut into mucosa-free strips and were cultured for 48 h (37° C., 5% CO2) in […] of phenol red-free DMEM supplemented with NB27 (2%) and antibiotics (1%) in the presence of normal glucose (control), control+MTX (100 μM), control+MTX+SEP (100 μM, 100 μM). On completion of incubation, DMEM ([…]) was collected and stored at −80° C. for analysis of NO released in medium during incubation period. NO released in the medium was analyzed as total nitrite (metabolic byproduct of NO) following the protocol supplied with a commercially available kit (EMD Chemicals, Gibbstown, N.J.).

nNOSalpha = nNOSalpha dimerization, LT-SDS-PAGE, after in vivo treatment; design: species or system rat; conditions: for nNOSalpha dimmer/monomer level: diabetic female rat gastric antrum, sepiapterin 10 days or BH4 2 weeks, 20 mg kg^−1 per day
Method: Levels of nNOSa monomer and dimer were quantified by western blotting via Low temperature (LT)-PAGE in gastric antrum homogenates as described previously (94). LT-SDS-PAGE was performed on ice. The low-temperature process was used to identify nNOS dimers and monomers in the native state as low temperature is known to prevent monomerization of nNOS dimmers. For the low-temperature processing, 30 μg of protein in standard Laemmli buffer at 4° C. was used for SDS-PAGE. The mixture was incubated at 0° C. for 30 min before LT-SDS-PAGE using a 6% separating gel. All gels and buffers were pre-equilibrated to 4° C. prior to electrophoresis and the buffer tank placed in an ice-bath during electrophoresis to maintain the gel temperature below 15° C. A polyclonal antibody specific to nNOSa (Zymed Laboratories) and anti-rabbit IgG conjugated with horseradish peroxidase (Sigma Chemical, St. Louis, Mo.) were used as the primary and secondary antibodies, respectively.

[2] = Body weight in control and STZ-diabetic female rats; format: in vivo, rat; conditions: STZ-diabetic female rats + SEP 20 mg kg^−1 day^−1, 10 days
Method: (§3) Diabetes was induced in overnight fasted animals by a single intraperitoneal injection of streptozotocin (STZ, 55 mg kg^−1) (Sigma Chemical, St. Louis, Mo.) prepared in 9 mmol citrate buffer, pH 4.0. Control animals were injected with the vehicle (9 mmol citrate buffer, pH 4.0) (94). Blood glucose levels were examined in overnight fasted animals, 48 h post STZ injection. […] Blood glucose levels in vehicle-treated overnight fasting rats ranged between 80-95 mg dl^−1. Both control and diabetic female rats were selected during the diestrus phase of the estrous cycle using vaginal smear testing method [by measuring vaginal cytology (90-100% of leucocytes) under microscope] for further experiments. As reported earlier, 60-70% of diabetic rats show a persistent diestrous stage of the estrous cycle (data not shown) (95-96).
(§4) At the end of 7th week of diabetes induction, animals were divided into four groups, i.e. control female rats (C), diabetic female rats (DB), BH4 supplemented diabetic female rats (DB+BH4) and SEP supplemented diabetic female rats (DB+SEP). DB+BH4 were provided with BH4 pellets (20 mg kg^−1 body wt day^−1) for next 2 weeks. […] Tissue samples were snap frozen in liquid nitrogen and stored at −80° C. until analyzed. BH4 or SEP-pellets used in this study were prepared by compressing (Schircks Laboratories, Switzerland) with rodent chow and stored at −20° C. until used. […]

[3] = Fasting blood glucose in control and STZ-diabetic female rats; format: in vivo, rat
Method: as §3, §4

[4] = healthy female rats, MTX 3.75 mg kg^−1 i.p. twice a day, 4 days
[5] = diabetic female rats + dietary sepiapterin 20 mg kg^−1, 10 days

Nc1cc(O)nc(N)n1 [DAHP, 2,4-diamino-6-hydroxypyrimidine]
Effect on nitrergic relaxation (gastric tissues; DAHP 10 mM, 3 hours incubation, female control gastric tissues, n=2): inhibited
Effect on NO release (gastric LM-MPs): decreased
Effect on nNOS dimerization (nNOS): decreased

C[C@]12CC[C@@H]3c4ccc(O)cc4CC[C@H]3[C@@H]1CC[C@@H]2O [E2, estradiol-17beta]
Effect on gastric emptying for solids (female rats): significantly delayed
Effect on delayed solid gastric emptying (female rats; diabetic female rats, E2 2 mg/kg, 3 weeks): significantly restored
Effect on reduced nNOSalpha protein expression (nNOSalpha protein; diabetic female rat gastric tissues, E2 2 mg/kg 21 day pellet): significantly restored

COC(=O)[C@@H](N)CCCNC(=N)N[N+](=O)[O-] [L-NAME, N^G-nitro-L-arginine methyl ester]
Effect on nitrergic relaxation (gastric tissues; preincubation L-NAME 10^−4M, FC and FD groups, 2 Hz): significant inhibition
Effect on IGAP (rats; female rats): significantly elevated
Effect on IGAP (rats; male rats): decreased

CN(Cc1cnc2nc(N)nc(N)c2n1)c1ccc(C(=O)N[C@@H](CCC(=O)O)C(=O)O)cc1 [MTX, methotrexate]
nitrergic relaxation, antrum, EFS 2 Hz (gastric muscle strips; [4]): −0.08±0.04 AUC mg^−1 tissue
nitrergic relaxation, fundus, EFS 2 Hz (gastric muscle strips; [4]): −0.17±0.076 AUC mg^−1 tissue
nitrergic relaxation, pylorus, EFS 2 Hz (gastric muscle strips; [4]): −0.13±0.05 AUC mg^−1 tissue
NO release ([1]; MTX 100 μM): 0.73±0.15
nNOSalpha dimer/monomer ratio (nNOSalpha; female rat gastric antrum, MTX 3.75 mg kg^−1 twice a day, 4 days): 0.2±0.04

CC(=O)[C@H]1CC[C@H]2[C@@H]3CCC4=CC(=O)CC[C@]4(C)[C@H]3CC[C@]12C [P4, progesterone]
Effect on gastric emptying for solids (female rats): not

NC1=N[C@H](O)[C@H]2[C@H]3O[C@]4(O)O[C@@H]([C@@H](O)[C@@]2(N1)[C@@H]4O)[C@]3(O)CO [TTX, tetrodotoxin]
Effect on nitrergic relaxation (gastric tissues): abolished

C[C@H](O)C(=O)C1=Nc2c(nc(N)[nH]c2=O)NC1 [sepiapterin]
Body Weight [2]: 188 ± 4.3 g
Body Weight ([2]; listed as SEP): 188 ± 4.3 g
Blood Glucose ([3]; STZ-diabetic female rats + SEP, fasting): 494.5 ± 13.96 mg/dL
Effect on blood glucose levels ([3]; both control and diabetic female rats): unchanged
solid gastric emptying (% in 4 h) (female rats; control female rats + dietary sepiapterin 20 mg kg^−1, 10 days): 74±4 % in 4 h
solid gastric emptying (% in 4 h) (female rats; [5]): 67.0±8.2 % in 4 h
nitrergic relaxation, gastric antrum, EFS 2 Hz (gastric muscle strips; control female rats + sepiapterin): −0.51±0.06 AUC mg^−1 tissue
nitrergic relaxation, gastric antrum, EFS 2 Hz (gastric muscle strips; [5]): −0.35±0.03 AUC mg^−1 tissue
NO release ([1]; MTX 100 μM + SEP 100 μM): 1.02±0.19
Change in nNOSalpha protein expression (nNOSalpha protein; control female rat gastric antrum, BH4 or sepiapterin): no change
nNOSalpha protein level (nNOSalpha protein): 0.88±0.15
nNOSalpha dimmer/monomer level (nNOSalpha): 0.64±0.07

C[C@H](O)[C@H](O)[C@H]1CNc2nc(N)[nH]c(=O)c2N1 [tetrahydrobiopterin]
nNOSalpha protein level (nNOSalpha protein): 0.42±0.05
nNOSalpha dimmer/monomer level (nNOSalpha): 0.36±0.11
